Assay results taken from patent US4093722A, “Sulfonylimidazolidone substituted cephalosporins, antibacterial compositions containing them, and methods of combatting bacteria employing them” (Bayer Aktiengesellschaft, priority 1974, dated 1978).

Key:
B. subtilis = experiment: Antibiotic activity of electropherogram spot; format: cell-based
Escherichia coli = experiment: Antibiotic activity of electropherogram spot; format: cell-based
Pseudomonas aeruginosa = experiment: Antibiotic activity of electropherogram spot; format: cell-based
[1] = Antibiotic activity of electropherogram spot (germ not stated); format: cell-based
Klebsiella pneumoniae = experiment: In vitro turbidity test (Muller-Hinton broth); format: cell-based; details: 100 μg/ml, 24 hours incubation
[2] = system: Enterobacter aerogenes sp.; experiment: In vitro turbidity test (Muller-Hinton broth); format: cell-based; details: 100 μg/ml, 24 hours incubation
Providencia = experiment: In vitro turbidity test (Muller-Hinton broth); format: cell-based; details: 100 μg/ml, 24 hours incubation
Serratia marcescens = experiment: In vitro turbidity test (Muller-Hinton broth); format: cell-based; details: 100 μg/ml, 24 hours incubation
Escherichia coli BE = experiment: In vitro turbidity test (Muller-Hinton broth); format: cell-based; details: 100 μg/ml, 24 hours incubation
Salmonella sp. = experiment: In vitro turbidity test (Muller-Hinton broth); format: cell-based; details: 100 μg/ml, 24 hours incubation
Shigella sp. = experiment: In vitro turbidity test (Muller-Hinton broth); format: cell-based; details: 100 μg/ml, 24 hours incubation
[3] = system: Proteus, indole negative and indole positive sp.; experiment: In vitro turbidity test (Muller-Hinton broth); format: cell-based; details: 100 μg/ml, 24 hours incubation
[4] = system: Pasteurella pseudotuberculosis; format: cell-based; details: 100 μg/ml, 24 hours incubation
Brucella sp. = format: cell-based; details: 100 μg/ml, 24 hours incubation
Haemophilis influenzae = experiment: In vitro turbidity test (Muller-Hinton broth); format: cell-based; details: 100 μg/ml, 24 hours incubation
[5] = system: Bordetella bronchiseptica; experiment: In vitro turbidity test (Muller-Hinton broth); format: cell-based; details: 100 μg/ml, 24 hours incubation
[6] = system: Staphylococcus aureus 133; experiment: In vitro turbidity test (Muller-Hinton broth); format: cell-based; details: 100 μg/ml, 24 hours incubation
[7] = system: Neisseria catarrhalis sp.; experiment: In vitro turbidity test (Muller-Hinton broth); format: cell-based; details: 100 μg/ml, 24 hours incubation
[8] = system: Diplococcus pneumoniae sp.; experiment: In vitro turbidity test (Muller-Hinton broth); format: cell-based; details: 100 μg/ml, 24 hours incubation
[9] = system: Streptococcus pyogenes W.; experiment: In vitro turbidity test (Muller-Hinton broth); format: cell-based; details: 100 μg/ml, 24 hours incubation
Enterococcus sp. = experiment: In vitro turbidity test (Muller-Hinton broth); format: cell-based; details: 100 μg/ml, 24 hours incubation
Lactobacillus sp. = experiment: In vitro turbidity test (Muller-Hinton broth); format: cell-based; details: 100 μg/ml, 24 hours incubation
[10] = system: Corynebacterium diphteriae gravis; experiment: In vitro turbidity test (Muller-Hinton broth); format: cell-based; details: 100 μg/ml, 24 hours incubation
[11] = system: Corynebacterium pyogenes M.; experiment: In vitro turbidity test (Muller-Hinton broth); format: cell-based; details: 100 μg/ml, 24 hours incubation
Escherichia coli C 165 = experiment: Animal experiments with white mice (intraperitoneal infection); format: in vivo, white mice of strain CF1 infected with Escherichia coli; details: C165, sc, white mice CF1, subcutaneous, 1 administration 30 minutes after infection (1 × dose), 50% survive after 24 hours
Experimental: (§1) The white mice of strain CF1 were infected intraperitoneally with the species of bacteria indicated.
(§2) Determination of the ED50 after 24 hours
(§3) Therapy: 1 administration 30 minutes after infection.
(§4) The ED50 is the dose at which 50% of the infected animals still survive after 24 hours.

[12] = system: Staphylococcus aureus 133; experiment: as above; format: in vivo, white mice of strain CF1 infected with Staphylococcus aureus; details: Staphylococcus aureus, 133, sc; white mice CF1, subcutaneous, 1 administration 30 minutes after infection (1 × dose); 50% survive after 24 hours
Experimental: as §1, §2, §3, §4

Klebsiella = experiment: as above; format: in vivo, white mice of strain CF1 infected with Klebsiella; details: sc, white mice CF1, subcutaneous, 1 administration 30 minutes after infection (1 × dose), 50% survive after 24 hours
Experimental: as §1, §2, §3, §4

[13] = system: bacteria from the genus Pseudomonades; details: known art; cited from earlier work

SMILES | freedom from turbidity (Klebsiella pneumoniae) | freedom from turbidity [2] | freedom from turbidity (Providencia) | freedom from turbidity (Serratia marcescens) | freedom from turbidity (Escherichia coli BE) | freedom from turbidity (Salmonella sp.) | freedom from turbidity (Shigella sp.) | freedom from turbidity [3] | freedom from turbidity [4] | freedom from turbidity (Brucella sp.) | freedom from turbidity (Haemophilis influenzae) | freedom from turbidity [5] | freedom from turbidity [6] | freedom from turbidity [7] | freedom from turbidity [8] | freedom from turbidity [9] | freedom from turbidity (Enterococcus sp.) | freedom from turbidity (Lactobacillus sp.) | freedom from turbidity [10] | freedom from turbidity [11] | further results
CC(=O)OCC1=C(C(=O)[O-])N2C(=O)C(NC(=O)[C@H](NC(=O)N3CCNC3=O)c3ccccc3)[C@H]2SC1.[Na+] (stereo partly drawn) [Example 1, sodium 7-{D-α-[(2-oxo-imidazolidin-1-yl)-carbonylamino]-phenylacetamido}-3-acetoxymethyl-ceph-3-em-4-carboxylate] |  |  |  |  |  |  |  |  |  |  |  |  |  |  |  |  |  |  |  |  | antibiotic activity of the electropherogram spot (B. subtilis): only one spot with antibiotic activity; antibiotic activity of the electropherogram spot (Escherichia coli): only one spot with antibiotic activity; antibiotic activity of the electropherogram spot (Pseudomonas aeruginosa): only one spot with antibiotic activity
CC1=C(C(=O)O)N2C(=O)C(NC(=O)[C@H](NC(=O)N3CCNC3=O)c3ccccc3)[C@H]2SC1 (stereo partly drawn) [Example 2, 7-{D-α-[(2-Oxo-imidazolidin-1-yl)-carbonylamino]-phenylacetamido}-3-methyl-ceph-3-em-4-carboxylic acid] |  |  |  |  |  |  |  |  |  |  |  |  |  |  |  |  |  |  |  |  | antibiotic activity of the electropherogram spot [1]: only one spot with antibiotic activity
CC(=O)OCC1=C(C(=O)[O-])N2C(=O)C(NC(=O)[C@H](NC(=O)N3CCN(C)C3=O)c3ccccc3)[C@H]2SC1.[Na+] (stereo partly drawn) [Example 3, sodium 7-{D-α-[(3-methyl-2-oxo-imidazolidin-1-yl)-carbonylamino]-phenylacetamido}-3-acetoxymethyl-ceph-3-em-4-carboxylate] | free from turbidity | free from turbidity | free from turbidity | free from turbidity | free from turbidity | free from turbidity | free from turbidity | free from turbidity | free from turbidity | free from turbidity | free from turbidity | free from turbidity | free from turbidity | free from turbidity | free from turbidity | free from turbidity | free from turbidity | free from turbidity | free from turbidity | free from turbidity | 
CC(=O)OCC1=C(C(=O)[O-])N2C(=O)C(NC(=O)[C@H](NC(=O)N3CCN(S(C)(=O)=O)C3=O)c3ccccc3)[C@H]2SC1.[Na+] (stereo partly drawn) [Example 6, Sodium 7-{D-α-[(2-oxo-3-mesyl-imidazolidin-1-yl)-carbonylamino]-phenylacetamido}-3-acetoxymethyl-ceph-3-em-4-carboxylate] | free from turbidity | free from turbidity | free from turbidity | free from turbidity | free from turbidity | free from turbidity | free from turbidity | free from turbidity | free from turbidity | free from turbidity | free from turbidity | free from turbidity | free from turbidity | free from turbidity | free from turbidity | free from turbidity | free from turbidity | free from turbidity | free from turbidity | free from turbidity | ED50 (Escherichia coli C 165): 200 mg/kg; ED50 [12]: 10 mg/kg; ED50 (Klebsiella): 150 mg/kg; antibiotic activity of the electropherogram spot [1]: only shows one spot with antibiotic activity
CC(=O)OCC1=C(C(=O)[O-])N2C(=O)C(NC(=O)[C@H](NC(=O)N3CCN(S(=O)(=O)c4ccccc4)C3=O)c3ccccc3)[C@H]2SC1.[Na+] (stereo partly drawn) [Example 7, Sodium 7-{D-α-[(2-oxo-3-phenylsulphonyl-imidazolidin-1-yl)-carbonylamino]-phenylacetamido}-3-acetoxymethyl-ceph-3-em-4-carboxylate] | free from turbidity | free from turbidity | free from turbidity | free from turbidity | free from turbidity | free from turbidity | free from turbidity | free from turbidity | free from turbidity | free from turbidity | free from turbidity | free from turbidity | free from turbidity | free from turbidity | free from turbidity | free from turbidity | free from turbidity | free from turbidity | free from turbidity | free from turbidity | 
CC(=O)OCC1=C(C(=O)O)N2C(=O)C(NC(=O)C(N)c3ccccc3)[C@H]2SC1 (stereo partly drawn) [cephaloglycine, 7-(α-amino-phenylacetamido)-3-acetoxymethyl-ceph-3-em-4-carboxylic acid] |  |  |  |  |  |  |  |  |  |  |  |  |  |  |  |  |  |  |  |  | activity against infections caused by Pseudomonades [13]: not active
